According to publication PMC10388311, “Innovative Strategy toward Mutant CFTR Rescue in Cystic Fibrosis: Design and Synthesis of Thiadiazole Inhibitors of the E3 Ligase RNF5” (Journal of Medicinal Chemistry, 2023):

Molecular target: F508del-CFTR in CFBE41o– cells (Homo sapiens, UniProt Q99942)
Assay: HS-YFP microfluorimetric assay of F508del-CFTR rescue (corrector activity)
Type: cell-based
Details: CFBE41o– cells co-expressing F508del-CFTR and HS-YFP, 24 h treatment, Figure 5
Description: As a primary screen, the new thiadiazole derivatives 1–46 (Table 1) were tested for their ability to rescue the F508del-CFTR trafficking defect in CFBE41o^– cells, stably co-expressing F508del-CFTR and the HS-YFP (Figure 5). This cell line has been extensively used by our group, in combination with the microfluorimetric assay based on the HS-YFP, to identify and characterize many CFTR correctors.[39],[47] This assay relies on the hypothesis that RNF5 inhibition results in increased mutant CFTR processing and activity. Therefore, it can easily identify putative RNF5 inhibitors, but not other types of RNF5-binding compounds that could have no effect or have a negative effect on CFTR function, such as RNF5 activators (see analog-1). Thus, we opted for this assay as our primary aim was the identification of RNF5 inhibitors as a possible therapeutic strategy in CF. Twenty-four hours after seeding on 96-well plates, CFBE41o^– cells stably expressing F508del-CFTR and the HS-YFP were treated with test compounds at the desired concentration, one compound per well. Cells treated with vehicle alone (DMSO) and with corrector VX-809 (1 μM), respectively, served as negative and positive controls. At the time of the assay, cells were washed with PBS containing (in […]) 137 NaCl, 2.7 KCl, 8.1 Na2HPO4, 1.5 KH2PO4, 1 CaCl2, and 0.5 MgCl2. Cells were then incubated for 25 min with […] of PBS plus forskolin (20 μM) and VX-770 (1 μM) to maximally stimulate F508del-CFTR. Cells were then transferred to a microplate reader (FluoStar Galaxy; BMG Labtech, Offenburg, Germany) for CFTR activity determination. The plate reader was equipped with high-quality excitation (HQ500/20X: 500 ± 10 nm) and emission (HQ535/30M: 535 ± 15 nm) filters for YFP (Chroma Technology). Each assay comprised a continuous 14 s fluorescence reading and 2 s before and 12 s after injection of […] of an iodide-containing solution (PBS with Cl^– replaced by I^–; final I^– concentration […]). Data were normalized to the initial background-subtracted fluorescence. To determine the I^– influx rate, the final 11 s of the data for each well was fitted with an exponential function to extrapolate initial slope (dF/dt). Reproducibility of results was confirmed by performing three independent experiments. CFBE41o^– cells co-expressing F508del-CFTR and the HS-YFP were reverse-transfected with 50 nM (final concentration) siRNAs (Stealth, Life Technologies) in the presence of lipofectamine 2000 as a transfection agent. The following day, the medium was changed, and the cells were incubated at 37 °C for additional 24 h treated with test compounds at the desired concentration, prior to processing the cells for the YFP-based functional assay.

F508del-CFTR in CFBE41o– cells, sequence (Q99942 2-180): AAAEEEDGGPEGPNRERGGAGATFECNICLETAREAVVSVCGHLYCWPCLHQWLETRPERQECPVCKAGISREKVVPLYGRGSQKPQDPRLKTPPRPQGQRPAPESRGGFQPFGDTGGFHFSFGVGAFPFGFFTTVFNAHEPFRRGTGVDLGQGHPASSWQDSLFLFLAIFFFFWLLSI
F508del-CFTR in CFBE41o– cells, sequence (P13569 with tags, fused parts or gaps DEL508-508 partner): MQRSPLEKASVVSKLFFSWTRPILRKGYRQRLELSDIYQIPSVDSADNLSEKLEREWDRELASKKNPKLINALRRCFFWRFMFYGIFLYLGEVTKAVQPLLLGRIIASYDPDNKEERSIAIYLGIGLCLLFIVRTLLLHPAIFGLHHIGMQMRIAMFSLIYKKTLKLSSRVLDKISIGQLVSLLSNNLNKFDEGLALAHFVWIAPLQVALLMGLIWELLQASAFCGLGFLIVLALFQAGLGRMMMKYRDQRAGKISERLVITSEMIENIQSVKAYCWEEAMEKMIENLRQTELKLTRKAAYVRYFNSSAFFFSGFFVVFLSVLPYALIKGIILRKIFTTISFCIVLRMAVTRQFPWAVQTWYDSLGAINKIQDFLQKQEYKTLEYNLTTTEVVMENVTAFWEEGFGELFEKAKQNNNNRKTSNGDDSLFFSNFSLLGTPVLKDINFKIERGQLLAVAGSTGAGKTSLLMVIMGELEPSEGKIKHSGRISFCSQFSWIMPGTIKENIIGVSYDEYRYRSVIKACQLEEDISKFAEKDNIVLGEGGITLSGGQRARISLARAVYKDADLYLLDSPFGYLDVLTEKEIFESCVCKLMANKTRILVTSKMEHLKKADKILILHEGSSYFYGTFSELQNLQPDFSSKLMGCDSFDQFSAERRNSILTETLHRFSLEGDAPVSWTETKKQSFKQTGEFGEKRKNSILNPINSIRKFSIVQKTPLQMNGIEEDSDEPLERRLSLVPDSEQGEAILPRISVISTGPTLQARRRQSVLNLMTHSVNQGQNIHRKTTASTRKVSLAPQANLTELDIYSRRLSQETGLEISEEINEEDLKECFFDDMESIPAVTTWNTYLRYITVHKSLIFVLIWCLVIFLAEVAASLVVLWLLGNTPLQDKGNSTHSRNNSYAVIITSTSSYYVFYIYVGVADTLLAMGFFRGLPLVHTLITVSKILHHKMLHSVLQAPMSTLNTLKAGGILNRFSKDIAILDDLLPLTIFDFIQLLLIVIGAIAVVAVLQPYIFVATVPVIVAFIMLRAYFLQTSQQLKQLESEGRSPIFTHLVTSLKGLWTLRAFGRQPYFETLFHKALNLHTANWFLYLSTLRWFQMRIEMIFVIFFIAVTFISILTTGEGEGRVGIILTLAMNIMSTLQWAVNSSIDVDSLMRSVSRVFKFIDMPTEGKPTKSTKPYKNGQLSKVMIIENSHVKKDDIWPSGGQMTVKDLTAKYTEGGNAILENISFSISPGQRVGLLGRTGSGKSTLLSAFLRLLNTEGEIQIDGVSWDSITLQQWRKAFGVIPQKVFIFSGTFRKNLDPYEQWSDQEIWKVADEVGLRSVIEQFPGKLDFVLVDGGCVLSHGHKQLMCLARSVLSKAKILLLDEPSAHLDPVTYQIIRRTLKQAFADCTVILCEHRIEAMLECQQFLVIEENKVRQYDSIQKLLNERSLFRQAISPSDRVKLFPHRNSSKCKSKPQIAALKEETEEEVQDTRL

| Compound | F508del-CFTR corrector activity compared with inh-2 (CFTR activity, primary screen) |
| --- | --- |
| Cc1ns/c(=N\C(=N\c2ccccc2)c2ccccc2)n1CCc1ccccc1 [Compound 4, (E)-N-((Z)-3-Methyl-4-phenethyl-1,2,4-thiadiazol-5(4H)-ylidene)-N′-phenylbenzimidamide] | devoid of significant F508del-CFTR corrector activity |
| Cc1ns/c(=N\C(=N\c2ccccc2)c2ccccc2)n1CCCc1ccccc1 [Compound 5, (E)-N-((Z)-3-Methyl-4-(3-phenylpropyl)-1,2,4-thiadiazol-5(4H)-ylidene)-N′-phenylbenzimidamide] | devoid of significant F508del-CFTR corrector activity |
| Cc1ccc(Cn2c(C)ns/c2=N\C(=N\c2ccccc2)c2ccccc2)cc1 [Compound 6, (E)-N-((Z)-3-Methyl-4-(4-methylbenzyl)-1,2,4-thiadiazol-5(4H)-ylidene)-N′-phenylbenzimidamide] | maintained the activity unaltered |
| COc1ccc(Cn2c(C)ns/c2=N\C(=N\c2ccccc2)c2ccccc2)cc1 [Compound 7, (E)-N-((Z)-4-(4-Methoxybenzyl)-3-methyl-1,2,4-thiadiazol-5(4H)-ylidene)-N′-phenylbenzimidamide] | reduced potency |
| Cc1ns/c(=N\C(=N\c2ccccc2)c2ccccc2)n1Cc1ccc(O)cc1 [Compound 8, (E)-N-((Z)-4-(4-Hydroxybenzyl)-3-methyl-1,2,4-thiadiazol-5(4H)-ylidene)-N′-phenylbenzimidamide] | reduced potency |
| Cc1ns/c(=N\C(=N\c2ccccc2)c2ccccc2)n1Cc1ccc(Cl)cc1 [Compound 10, (E)-N-((Z)-4-(4-Chlorobenzyl)-3-methyl-1,2,4-thiadiazol-5(4H)-ylidene)-N′-phenylbenzimidamide] | maintained the activity unaltered |
| Cc1ns/c(=N\C(=N\c2ccccc2)c2ccccc2)n1Cc1ccc(N)cc1 [Compound 13, (E)-N-((Z)-4-(4-Aminobenzyl)-3-methyl-1,2,4-thiadiazol-5(4H)-ylidene)-N′-phenylbenzimidamide] | reduced potency |
| Cc1ns/c(=N\C(=N\c2ccccc2)c2ccccc2)n1Cc1cccc(OC(C)C)c1 [Compound 18, (E)-N-((Z)-4-(3-Isopropoxybenzyl)-3-methyl-1,2,4-thiadiazol-5(4H)-ylidene)-N′-phenylbenzimidamide] | decreased potency |
| CCOc1cccc(Cn2c(C)ns/c2=N\C(=N\c2ccccc2)c2ccccc2)c1 [Compound 19, (E)-N-((Z)-4-(3-Ethoxybenzyl)-3-methyl-1,2,4-thiadiazol-5(4H)-ylidene)-N′-phenylbenzimidamide] | did not affect the activity |
| Cc1ns/c(=N\C(=N\c2ccccc2)c2ccccc2)n1Cc1cccc(N(C)C)c1 [Compound 22, (E)-N-((Z)-4-(3-(Dimethylamino)benzyl)-3-methyl-1,2,4-thiadiazol-5(4H)-ylidene)-N′-phenylbenzimidamide] | did not affect the activity |
| Cc1ns/c(=N\C(=N\c2ccccc2)c2ccccc2)n1Cc1ccccc1Cl [Compound 28, (E)-N-((Z)-4-(2-Chlorobenzyl)-3-methyl-1,2,4-thiadiazol-5(4H)-ylidene)-N′-phenylbenzimidamide] | comparable activity to the unsubstituted original hit inh-2 |
| Cc1ns/c(=N\C(=N\c2ccccc2)c2cccnc2)n1Cc1ccccc1 [Compound 35, (E)-N-((Z)-4-Benzyl-3-methyl-1,2,4-thiadiazol-5(4H)-ylidene)-N′-phenylnicotinimidamide] | drop of activity |
| Cc1ns/c(=N\C(=N\c2ccccc2)c2ccco2)n1Cc1ccccc1 [Compound 36, (E)-N-((Z)-4-Benzyl-3-methyl-1,2,4-thiadiazol-5(4H)-ylidene)-N′-phenylfuran-2-carboximidamide] | drop of activity |
| Cc1cccc(/N=C(/N=c2\snc(C)n2Cc2ccccc2)c2ccccc2)c1 [Compound 37, (E)-N-((Z)-4-Benzyl-3-methyl-1,2,4-thiadiazol-5(4H)-ylidene)-N′-(m-tolyl)benzimidamide] | inactive analogs |
| Cc1ns/c(=N\C(=N\Cc2ccccc2)c2ccccc2)n1Cc1ccccc1 [Compound 38, (E)-N′-Benzyl-N-((Z)-4-benzyl-3-methyl-1,2,4-thiadiazol-5(4H)-ylidene)benzimidamide] | inactive analogs |

Second part, the molecule after the results:

| F508del-CFTR corrector activity compared with inh-2 (CFTR activity, primary screen) | Compound |
| --- | --- |
| did not affect the activity | Cc1cccc(Cn2c(C)ns/c2=N\C(=N\c2ccccc2)c2ccccc2)c1 [Compound 14, (E)-N-((Z)-3-Methyl-4-(3-methylbenzyl)-1,2,4-thiadiazol-5(4H)-ylidene)-N′-phenylbenzimidamide] |
| decreased potency | Cc1ns/c(=N\C(=N\c2ccccc2)c2ccccc2)n1Cc1cccc(C(F)(F)F)c1 [Compound 15, (E)-N-((Z)-3-Methyl-4-(3-(trifluoromethyl)benzyl)-1,2,4-thiadiazol-5(4H)-ylidene)-N′-phenylbenzimidamide] |
| decreased potency | Cc1ns/c(=N\C(=N\c2ccccc2)c2ccccc2)n1Cc1cccc(N)c1 [Compound 20, (E)-N-((Z)-4-(3-Aminobenzyl)-3-methyl-1,2,4-thiadiazol-5(4H)-ylidene)-N′-phenylbenzimidamide] |
| did not affect the activity | Cc1ns/c(=N\C(=N\c2ccccc2)c2ccccc2)n1Cc1cccc(F)c1 [Compound 23, (E)-N-((Z)-4-(3-Fluorobenzyl)-3-methyl-1,2,4-thiadiazol-5(4H)-ylidene)-N′-phenylbenzimidamide] |
| increased activity | Cc1ns/c(=N\C(=N\c2ccccc2)c2ccccc2)n1Cc1cccc(Cl)c1 [Compound 24, (E)-N-((Z)-4-(3-Chlorobenzyl)-3-methyl-1,2,4-thiadiazol-5(4H)-ylidene)-N′-phenylbenzimidamide] |
| slight increase in activity | Cc1ccccc1Cn1c(C)ns/c1=N\C(=N\c1ccccc1)c1ccccc1 [Compound 25, (E)-N-((Z)-3-Methyl-4-(2-methylbenzyl)-1,2,4-thiadiazol-5(4H)-ylidene)-N′-phenylbenzimidamide] |
| detrimental effect | Cc1ns/c(=N\C(=N\c2ccccc2)c2ccccc2)n1Cc1ccccc1C(F)(F)F [Compound 26, (E)-N-((Z)-3-Methyl-4-(2-(trifluoromethyl)benzyl)-1,2,4-thiadiazol-5(4H)-ylidene)-N′-phenylbenzimidamide] |
| slight increase in activity | COc1ccccc1Cn1c(C)ns/c1=N\C(=N\c1ccccc1)c1ccccc1 [Compound 27, (E)-N-((Z)-4-(2-Methoxybenzyl)-3-methyl-1,2,4-thiadiazol-5(4H)-ylidene)-N′-phenylbenzimidamide] |
